Results reported in US20260274814A1, “THIENYL COMPOUNDS FOR THE TREATMENT OF A CENTRAL NERVOUS SYSTEM DISEASE OR DISORDER” (Coreterra Therapeutics, Inc., priority 2023, published 2026).
Structures can show the parent of a compound that is named as a salt.

Tested on: mice
Assay: Neuropharmacological Assay (SmartCube): automated behavioral signature of compound-treated mice compared with a database of reference drug classes
Assay type: in vivo
Conditions: for MED (minimal effective dose) / minimal effective dose: dose having 45% or more total activity in SmartCube, i.p., if only one dose was tested, that dose is shown; for AD / AG / AN / CE / HL / MS / PS / SH / UK / AP / AX: probability that activity matches this class of agents, 3.0 mg/kg i.p., 15 min before test; for minimal effective dose: Mus musculus, ip, read-out: MED (minimal effective dose)
Excerpt: Neurosci. 2011 Sep. 9; 5: 103 (doi: 10.3389/fnins.2011.00103) (“Roberds”). As reported in Roberds, because psychiatric diseases generally result from disorders of cell-cell communication or circuitry, intact systems are useful in detecting improvement in disease-relevant endpoints. These endpoints are typically behavioral in nature, often requiring human observation and interpretation. To facilitate testing of multiple compounds for behavioral effects relevant to psychiatric disease, PsychoGenics, Inc. (Tarrytown, NY, “PGI”) developed SmartCube™ an automated system in which behaviors of compound-treated mice are captured by digital video and analyzed with computer algorithms. (D. Brunner et al. Drug Discov. Today 2002, 7:S107-S112). PGI Analytical Systems uses data from SmartCube™ to compare the behavioral signature of a test compound to a database of behavioral signatures obtained using a large set of diverse reference compounds. (The composition of the database as well as validation of the method is further described in Roberds). In this way, the neuropharmacological effects of a test compound can be predicted by similarity to major classes of compounds, such as antipsychotics, anxiolytics and antidepressants.
The SmartCube™ system produces an activity signature indicating the probability that the activity of the test compound at the administered dose matches a given class of neuropharmacological agents. (See, e.g., Roberds, FIGS. 2 and 3). The test compound is simultaneously compared against multiple classes of agents; thus, a separate probability is generated for each behavioral effect measured (e.g., anxiolytic activity, analgesic activity, etc.). In table 2 below, these probabilities are reported for each behavioral effect measured as described in Table 1 below.
Provided compounds were dissolved in a mixture of Pharmasolve™ (N-methyl-2-pyrrolidone), polyethylene glycol and propylene glycol, and were injected i.p. 15 min. before the behavioral test. For each compound, injections were administered at 3 different doses. For each behavioral effect measured, results for the 3.0 mg/kg dose are presented. The potency of many of the compounds in the table was also determined in the SmartCube™ system. Test compounds were routinely examined at dose levels of 0.3, 1, 3 and 10 mg per kg (mpk), although the dose range was increased or decreased, if necessary, to obtain a full dose response curve. A compound's minimal effective dose (MED) is a measure of the compound's potency. The MED was defined as the dose (in mpk) having 45% or more total activity in SmartCube. If only one dose was tested, that dose is shown in the MED column of Table 2 even though the dose is not known to be the MED.

SMILES: CNC1CCc2c(csc2C)C1 (single isomer, unassigned) [Compound 33, N, 1-dimethyl-4,5,6,7-tetrahydro-2-benzothiophen-5-amine hydrochloride]
- MED (minimal effective dose) (hydrochloride): 0.3 mpk
- AD: +++ (≥49%)
- AG: ND (^ <4%)
- AN: ND (^ <4%)
- CE: ND (^ <4%)
- HL: ND (^ <4%)
- MS: ND (^ <4%)
- PS: ND (^ <4%)
- SH: ND (^ <4%)
- UK: ND (^ <4%)
- AP (hydrochloride, 3 mg/kg): ++ (≥24%)
- AX (hydrochloride, 3 mg/kg): ND (^ <4%)

SMILES: Cc1cc2c(s1)CC(N(C)C)CC2.Cl (single isomer, unassigned) [Compound 34, N,N, 2-trimethyl-4,5,6,7-tetrahydrobenzothiophen-6-amine hydrochloride]
- minimal effective dose: 10 mg/kg
- AD: ND (^ <4%)
- AG: ND (^ <4%)
- AN: ND (^ <4%)
- AP: ND (^ <4%)
- AX: ND (^ <4%)
- CE: ND (^ <4%)
- HL: ND (^ <4%)
- MS: ND (^ <4%)
- PS: ND (^ <4%)
- SH: ND (^ <4%)
- UK: ++ (≥24%)

SMILES: Cc1cc2c(s1)CC(N(C)C)CC2.Cl (single isomer, unassigned) [Compound 35, N,N, 2-trimethyl-4,5,6,7-tetrahydrobenzothiophen-6-amine hydrochloride]
- MED (minimal effective dose): 10 mpk
- AD: ND (^ <4%)
- UK: ++ (≥24%)

SMILES: CNC1CCc2cc(C#N)sc2C1 (single isomer, unassigned) [Compound 36, 6-(methylamino)-4,5,6,7-tetrahydrobenzothiophene-2-carbonitrile hydrochloride]
- minimal effective dose: 3 mg/kg
- AD: ND (^ <4%)
- AG: ND (^ <4%)
- AN: ND (^ <4%)
- AX: ND (^ <4%)
- CE: ND (^ <4%)
- HL: ND (^ <4%)
- MS: ND (^ <4%)
- PS: ND (^ <4%)
- SH: ND (^ <4%)
- AP (hydrochloride, 3 mg/kg): +++ (≥49%)
- UK (hydrochloride, 3 mg/kg): ++ (≥24%)

SMILES: CNC1CCc2cc(C#N)sc2C1 (single isomer, unassigned) [Compound 37, 6-(methylamino)-4,5,6,7-tetrahydrobenzothiophene-2-carbonitrile hydrochloride]
- MED (minimal effective dose): 3.0 mpk
- AD: ND (^ <4%)
- AG: ND (^ <4%)
- AN: ND (^ <4%)
- AX: ND (^ <4%)
- CE: ND (^ <4%)
- HL: ND (^ <4%)
- MS: ND (^ <4%)
- PS: ND (^ <4%)
- SH: ND (^ <4%)
- AP (hydrochloride, 3 mg/kg): ND (^ <4%)
- UK (hydrochloride, 3 mg/kg): +++ (≥49%)

SMILES: CNC1CCc2cc(C(F)(F)F)sc2C1 (single isomer, unassigned) [Compound 38, N-methyl-2-(trifluoromethyl)-4,5,6,7-tetrahydrobenzothiophen-6-amine]
- minimal effective dose: 3 mg/kg
- AG: ND (^ <4%)
- AN: ND (^ <4%)
- AX: ND (^ <4%)
- CE: ND (^ <4%)
- HL: ND (^ <4%)
- MS: ND (^ <4%)
- PS: ND (^ <4%)
- SH: ND (^ <4%)
- AD (3 mg/kg): ND (^ <4%)
- AP (3 mg/kg): ND (^ <4%)
- UK (3 mg/kg): ++ (≥24%)

SMILES: CNC1CCc2cc(C(F)(F)F)sc2C1 (single isomer, unassigned) [Compound 39, N-methyl-2-(trifluoromethyl)-4,5,6,7-tetrahydrobenzothiophen-6-amine]
- MED (minimal effective dose): 3.0 mpk
- AG: ND (^ <4%)
- AN: ND (^ <4%)
- AX: ND (^ <4%)
- CE: ND (^ <4%)
- HL: ND (^ <4%)
- MS: ND (^ <4%)
- PS: ND (^ <4%)
- SH: ND (^ <4%)
- AD (3 mg/kg): +++ (≥49%)
- AP (3 mg/kg): ++ (≥24%)
- UK (3 mg/kg): ND (^ <4%)

SMILES: CNC1CCc2csc(C)c2C1.Cl (single isomer, unassigned) [Compound 40, N, 3-dimethyl-4,5,6,7-tetrahydro-2-benzothiophen-5-amine hydrochloride]
- minimal effective dose: 1 mg/kg
- AG: ND (^ <4%)
- AN: ND (^ <4%)
- AP: ++ (≥24%)
- CE: ND (^ <4%)
- HL: ND (^ <4%)
- MS: ND (^ <4%)
- PS: ND (^ <4%)
- SH: ND (^ <4%)
- UK: ND (^ <4%)
- AD (hydrochloride, 3 mg/kg): ND (^ <4%)
- AX (hydrochloride, 3 mg/kg): +++ (≥49%)

SMILES: CNC1CCc2csc(C)c2C1.Cl (single isomer, unassigned) [Compound 41, N, 3-dimethyl-4,5,6,7-tetrahydro-2-benzothiophen-5-amine hydrochloride]
- MED (minimal effective dose): 1.0 mpk
- AG: ND (^ <4%)
- AN: ND (^ <4%)
- AP: ++ (≥24%)
- CE: ND (^ <4%)
- HL: ND (^ <4%)
- MS: ND (^ <4%)
- PS: ND (^ <4%)
- SH: ND (^ <4%)
- UK: ND (^ <4%)
- AD (hydrochloride, 3 mg/kg): +++ (≥49%)
- AX (hydrochloride, 3 mg/kg): ND (^ <4%)

SMILES: CNC1CCc2c(sc(C)c2C)C1 (single isomer, unassigned) [Compound 42, N, 2,3-trimethyl-4,5,6,7-tetrahydrobenzothiophen-6-amine hydrochloride]
- minimal effective dose: 3 mg/kg
- AD: ++++ (≥74%)
- AG: ND (^ <4%)
- AN: ND (^ <4%)
- AP: ND (^ <4%)
- AX: ND (^ <4%)
- CE: ND (^ <4%)
- MS: ND (^ <4%)
- PS: ND (^ <4%)
- SH: ND (^ <4%)
- UK: ND (^ <4%)
- HL (hydrochloride, 3 mg/kg): ND (^ <4%)

SMILES: CNC1CCc2c(sc(C)c2C)C1 (single isomer, unassigned) [Compound 43, N, 2,3-trimethyl-4,5,6,7-tetrahydrobenzothiophen-6-amine hydrochloride]
- MED (minimal effective dose): 3.0 mpk
- AD: ++++ (≥74%)
- AG: ND (^ <4%)
- AN: ND (^ <4%)
- AP: ND (^ <4%)
- AX: ND (^ <4%)
- CE: ND (^ <4%)
- MS: ND (^ <4%)
- PS: ND (^ <4%)
- SH: ND (^ <4%)
- UK: ND (^ <4%)
- HL (hydrochloride, 3 mg/kg): + (≥4%)

SMILES: CNC1CCc2c(C)csc2C1 (single isomer, unassigned) [Compound 44, N, 3-dimethyl-4,5,6,7-tetrahydrobenzothiophen-6-amine hydrochloride]
- MED (minimal effective dose) (hydrochloride): 1.0 mpk
- AG: ND (^ <4%)
- AN: ND (^ <4%)
- AX: ND (^ <4%)
- CE: ND (^ <4%)
- HL: ND (^ <4%)
- MS: ND (^ <4%)
- PS: ND (^ <4%)
- SH: ND (^ <4%)
- UK: ND (^ <4%)
- AD (hydrochloride, 3 mg/kg): ++ (≥24%)
- AP (hydrochloride, 3 mg/kg): +++ (≥49%)

SMILES: CNC1CCc2c(C)csc2C1 (single isomer, unassigned) [Compound 45, N, 3-dimethyl-4,5,6,7-tetrahydrobenzothiophen-6-amine hydrochloride]
- MED (minimal effective dose) (hydrochloride): 0.1 mpk
- AG: ND (^ <4%)
- AN: ND (^ <4%)
- AX: ND (^ <4%)
- CE: ND (^ <4%)
- HL: ND (^ <4%)
- MS: ND (^ <4%)
- PS: ND (^ <4%)
- SH: ND (^ <4%)
- UK: ND (^ <4%)
- AD (hydrochloride, 3 mg/kg): ++++ (≥74%)
- AP (hydrochloride, 3 mg/kg): + (≥4%)

SMILES: CNC1COc2ccsc2C1 (single isomer, unassigned) [Compound 46, N-methyl-6,7-dihydro-5H-thieno[3,2-b]pyran-6-amine hydrochloride]
- MED (minimal effective dose) (hydrochloride): 10 mpk
- AG: ND (^ <4%)
- AN: ND (^ <4%)
- AP: ND (^ <4%)
- CE: ND (^ <4%)
- HL: ND (^ <4%)
- MS: ND (^ <4%)
- PS: ND (^ <4%)
- SH: ND (^ <4%)
- AD (hydrochloride, 3 mg/kg): ND (^ <4%)
- AX (hydrochloride, 3 mg/kg): + (≥4%)
- UK (hydrochloride, 3 mg/kg): ++ (≥24%)
